According to patent US20060067931A1, “Receptor for lysophosphatidylcholine in vascular endothelial cells and use thereof” (priority 2004, published 2006):

What was measured:
Type in all cases: cell-based, human
GPR4 mRNA [1] = assay: RT-PCR of GPR4 mRNA in HBMEC; conditions: within 2 hours, TNF-α 100 U/ml or H2O2
GPR4 mRNA [2] = assay: RT-PCR of GPR4 mRNA in HMEC; conditions: within 2 hours, TNF-α 100 U/ml or H2O2
[3] = system: monocyte transmigration across HBMEC; assay: Monocyte transmigration assay across HBMEC

Q: `OO` [H2O2] was tested. Which “GPR4 mRNA over control” value (GPR4 mRNA [1]) did it give?
A: Its value is “increased GPR4 mRNA over control”.

Q: What about the “GPR4 mRNA over control” value (GPR4 mRNA [2]) of the same compound?
A: Its value is “not HMEC”.

Q: For C3 transferase, which “effect on basal monocyte transmigration” value [3] is on record?
A: Its value is “did not change basal monocyte transmigration”.

Q: And the “inhibition of LPC-induced monocyte transmigration” value [3]?
A: The value was “about 65%”.

Q: Which “GPR4 mRNA over control” value (GPR4 mRNA [1]) does the source give for TNF-α here?
A: The value was “increased GPR4 mRNA over control”.

Q: What about the “GPR4 mRNA over control” value (GPR4 mRNA [2]) of the same compound?
A: Its value is “not HMEC”.
